Test results: paper PMC11574108, “4-Furanylvinylquinoline derivative as a new scaffold for the design of oxidative stress initiator and glucose transporter inhibitor drugs” (Scientific Reports, 2024)
Values joined by “and” are separate entries in the source; they are usually repeats but may differ in a detail not shown here. Equal values may be shown once.

Key:
[1] = tested on: HCT 116 p53+/+; experiment: Monolayer antiproliferative MTS assay; assay type: cell-based, human; conditions: 2D monolayer; for IC50: MTS, 72-h incubation; for SI (selectivity index) HCT 116 p53+/+: relative to NHDF
Source text: (§1) The human colon carcinoma cell line HCT 116 with wild-type p53 (p53^+/+) and the human glioblastoma cell line U-251 were obtained from ATCC, while the HCT 116 with a p53 deletion (p53^−/−) was kindly provided by Prof. M. Rusin from the Maria Sklodowska-Curie Memorial Cancer Center and Institute of Oncology in Gliwice, Poland. The human chronic myelogenous leukaemia cell line K562 and the normal human cell dermal fibroblast cell line NHDF were purchased from Sigma-Aldrich and PromoCell, respectively. Both the HCT 116 and U-251 cell lines were cultured in Dulbecco’s modified Eagle’s medium (DMEM) supplemented with 10% inactivated foetal bovine serum (FBS). The DMEM for the NHDF contained 15% non-inactivated FBS. K562 cells were cultured in RPMI medium completed by 10% inactivated FBS. Additionally, the media were supplemented with antibiotics (streptomycin and penicillin – 1% v/v; Sigma-Aldrich). The cell culture was conducted in 75 cm^2 flasks (Nunc) under standard conditions (37 °C, 5% CO2 humidified atmosphere). Furthermore, the cell lines were frequently tested for mycoplasma using the qRT-PCR technique with specific Mycoplasma primers to confirm the lack of contamination.
(§2) The cells were seeded in 96-well plates (Nunc) with 5,000 or 4,000 cells per well for the cancer cells and NHDF, respectively, and incubated under standard conditions at 37 °C overnight. The culture media were then changed for freshly prepared solutions of the tested compounds in various concentrations. After 72-h incubation the antiproliferative assay was carried out as follows: the solutions of the compounds were changed in each well to 100 µL DMEM without phenol red and 20 µL of CellTiter 96 AQueous One Solution-MTS (Promega). The plates were incubated for 1 h at 37 °C, and the absorbance was then measured at 490 nm using a multi-plate reader (Synergy 4, BioTek). The experiment for each sample was repeated at least three times.
(§3) Additionally, the compounds were also tested for their cytotoxicity against normal cells – human dermal fibroblasts (NHDF).

[2] = tested on: HCT 116 p53-/-; experiment: Monolayer antiproliferative MTS assay; assay type: cell-based, human; conditions: 2D monolayer; for IC50: MTS, 72-h incubation; for SI (selectivity index) HCT 116 p53-/-: relative to NHDF
Source text: as §1, §2, §3

[3] = tested on: NHDF; experiment: Monolayer MTS cytotoxicity against normal cells; assay type: cell-based; conditions: normal human dermal fibroblasts, 72-h incubation
Source text: as §1, §2, §3

[4] = tested on: K562; experiment: Monolayer antiproliferative MTS assay; assay type: cell-based, human; conditions: 2D model
Source text: as §1
as §2, with “times. The results are presented as the half-maximal inhibitory concentration (IC50) values, which were estimated in comparison to untreated cells (control) and calculated using GraphPad Prism v.8.0 (USA).” for “times.”
(§4) However, the antiproliferative activity of derivative 13 with furan a ring was surprising. […] For this purpose, we selected two pancreatic cancer cell lines: AsPC-1, which is characterised by a deletion of the p53 protein[20] and PANC-1, which carries an R273H mutation. This mutation also occurred in the glioblastoma U-251 cell line[22],[23]. An additional non-adherent line that carries the TP53 mutation that results in the absence of p53 is the K562 leukemic cell line[24]. […] Moreover, 13 was selective toward […], as indicated by its SI values (3.35–9.41). Among all of the tested cell lines, the highest activity of the compound was found against the HCT 116 cells with the wild-type p53 protein (0.069 µM). […] The p53 protein also interacts with the metabolic pathways that are associated with glucose transport[25] as well as small molecules. In light of the above-mentioned facts, we also determined the cytotoxicity of the GLUT inhibitor BAY-876, which is based on a quinoline scaffold. […] Furthermore, BAY-876 was also toxic to normal cells.

[5] = tested on: U-251; experiment: Monolayer antiproliferative MTS assay; assay type: cell-based, human; conditions: 2D monolayer
Source text: as §1
as §2, with “times. The results are presented as the half-maximal inhibitory concentration (IC50) values, which were estimated in comparison to untreated cells (control) and calculated using GraphPad Prism v.8.0 (USA).” for “times.”
as §4

[6] = tested on: GLUT-1; experiment: Western blot, GLUT-1 protein level; assay type: cell-based, human; conditions: HCT 116 p53+/+, DOX 5 µM, both time points (24 and 48 h)
Description: The cells (500,000) were seeded in 35 mm Petri dishes (Nunc) and incubated in a solution of the tested compound (0.5 µM and 1 µM) for 24 h and 48 h. The cells were then dissociated using trypsin, collected in Eppendorf tubes, and centrifuged at 2,000 rpm. Next, cell pellets were resuspended in complete RIPA buffer containing a Halt Protease Inhibitor Cocktail and Halt Phosphatase Inhibitor Cocktail along with 0.5 M EDTA (all reagents from Thermo Fisher Scientific) and lysed on ice for 20 min. Afterward, the lysates were sonicated and centrifuged at 10,000 rpm for 10 min at 4 °C. The obtained supernatants were collected for further analysis. The protein concentration was determined using a Micro BCA™ Protein Assay Kit (Thermo Fisher Scientific) according to the manufacturer’s procedure. Equal amounts of proteins (16 µg) were electrophoresed on SDS-Page gels and transferred onto nitrocellulose membranes. Novex Sharp Pre-Stained Protein Standard (Thermo Fisher Scientific) was used as a colored molecular weight marker. The membranes were blocked in 5% non-fat milk prepared in TPBS (PBS supplemented by 0.1% Tween-20) for 1 h. After blocking, the membranes were cut, and then incubated with specific primary monoclonal antibodies (all purchased from Cell Signaling) overnight at 4 °C. The antibodies for the target proteins (CDK1 Mouse mAb #9116, p53 Mouse mAb #2524, FAS Mouse mAb #8023, GLUT-1 Rabbit mAb #12939, HO-1 Rabbit mAb #5853, p21^Waf1/Cip1 Rabbit mAb #2947, PARP #9542) were diluted 1:1000, while the antibodies for the reference proteins (GAPDH Rabbit mAb #2118, β-actin Mouse mAb #3700, and vinculin Rabbit mAb #13901) were diluted 1:2000. The following day, the membranes were washed in TPBS and incubated with horseradish peroxidase (HRP)-conjugated secondary antibodies (Anti-rabbit IgG, HRP-linked Antibody #7074 or Anti-mouse IgG, HRP-linked Antibody #7076) for 1 h at room temperature. The membranes were then washed in TPBS and incubated with a SuperSignal™ West Pico Chemiluminescent Substrate (Thermo Fisher Scientific). Finally, the membranes were visualized using a ChemiDoc™ XRS + System (Bio-Rad). The experiments were carried out four to five times. The densitometric analysis was performed using ImageJ software (Wayne Rasband, National Institutes of Health, USA).
We, therefore, decided to test the effect of the tested compound on the level of the main glucose transporter, GLUT-1. […] The validity of the described conclusions was confirmed by the results that were obtained for doxorubicin. in which p53 activation occurred at both tested time points with a concomitant decrease in the GLUT-1 levels. […] The results that were obtained from the measurements of the expression of this protein were so interesting, and at the same time, inconclusive that we additionally decided to determine the effect of the tested derivative 13 on the expression of the genes encoding selected glucose transporters.

[7] = tested on: AsPC-1; experiment: Monolayer antiproliferative MTS assay; assay type: cell-based, human; conditions: 2D monolayer
Description: as §2, with “times. The results are presented as the half-maximal inhibitory concentration (IC50) values, which were estimated in comparison to untreated cells (control) and calculated using GraphPad Prism v.8.0 (USA).” for “times.”
as §4

[8] = tested on: PANC-1; experiment: Monolayer antiproliferative MTS assay; assay type: cell-based, human; conditions: 2D monolayer
Description: as §2, with “times. The results are presented as the half-maximal inhibitory concentration (IC50) values, which were estimated in comparison to untreated cells (control) and calculated using GraphPad Prism v.8.0 (USA).” for “times.”
as §4

| Structure (SMILES) | melting point | IC50 ([1]; Homo sapiens, HCT-116, 72 h) | IC50 ([2]; Homo sapiens, HCT-116, 72 h) | SI (selectivity index) HCT 116 p53+/+ [1] | SI (selectivity index) HCT 116 p53-/- [2] | IC50 ([3]; NHDF) | other results |
| --- | --- | --- | --- | --- | --- | --- | --- |
| Oc1cccc2ccc(/C=C/c3ccco3)nc12 [Compound 1] |  |  |  |  |  |  | IC50 [1]: > 25000 nM; IC50 [2]: > 25000 nM |
| Cc1ccc(/C=C/c2ccc3cccc(O)c3n2)o1 [Compound 2] |  |  |  |  |  |  | IC50 [1]: > 25000 nM; IC50 [2]: > 25000 nM |
| O=[N+]([O-])c1ccc(/C=C/c2ccc3cccc(O)c3n2)o1 [Compound 3] | 189 to 191 °C |  |  |  |  |  |  |
| CC(=O)Oc1cccc2ccc(/C=C/c3ccc([N+](=O)[O-])o3)nc12 [Compound 4] | 173 to 175 °C | 200 ± 30 nM | 240 ± 50 nM | 3.35 | 2.79 | 670 ± 80 nM |  |
| Oc1c(Cl)cc(Cl)c2ccc(C=Cc3ccco3)nc12 [Compound 6] |  |  |  |  |  |  | IC50 [1]: 4000 nM and 4010 nM; IC50 [2]: 2700 nM and 2720 nM; IC50 [3]: > 25000 nM |
| O=[N+]([O-])c1ccc(/C=C/c2ccnc3ccccc23)c([N+](=O)[O-])c1 [Compound 12] | 200 to 201 °C |  |  |  |  |  | IC50 ([1]; Homo sapiens, HCT-116): > 25000 nM; IC50 ([2]; Homo sapiens, HCT-116): > 25000 nM |
| COc1cccc2c1C(=O)c1c(O)c3c(c(O)c1C2=O)C[C@@](O)(C(=O)CO)C[C@@H]3O[C@H]1C[C@H](N)[C@H](O)[C@H](C)O1 [Doxorubicin, reference compound] |  |  |  | 0.41 | 0.37 | 140 ± 30 nM | IC50 ([1]; Homo sapiens, HCT-116): 340 ± 40 nM; IC50 ([2]; Homo sapiens, HCT-116): 380 ± 30 nM; SI (selectivity index) K562 ([4]; relative to NHDF): 7.00; IC50 ([4]; Homo sapiens, K562, MTS, 72-h incubation): 20 ± 10 nM; SI (selectivity index) U-251 ([5]; relative to NHDF): 2.80; IC50 ([5]; Homo sapiens, U-251, MTS, 72-h incubation): 50 ± 20 nM; GLUT-1 protein level vs control [6]: decrease; SI (selectivity index) AsPC-1 ([7]; relative to NHDF): 0.16; IC50 ([7]; Homo sapiens, ASPC1, MTS, 72-h incubation): 860 ± 130 nM; SI (selectivity index) PANC-1 ([8]; relative to NHDF): 0.19; IC50 ([8]; Homo sapiens, PANC-1, MTS, 72-h incubation): 730 ± 90 nM |

Continued, in another order:

| melting point | IC50 ([1]; Homo sapiens, HCT-116, 72 h) | IC50 ([2]; Homo sapiens, HCT-116, 72 h) | Structure (SMILES) | SI (selectivity index) HCT 116 p53+/+ [1] | SI (selectivity index) HCT 116 p53-/- [2] | IC50 ([3]; NHDF) | other results |
| --- | --- | --- | --- | --- | --- | --- | --- |
| 306 to 308 °C | 300 ± 100 nM | 300 ± 70 nM | O=[N+]([O-])c1ccc(/C=C/c2cc(O)c3ccccc3n2)o1 [Compound 5] | 1.50 | 1.50 | 450 ± 70 nM |  |
| 270 to 271 °C | 3460 ± 340 nM | 1330 ± 250 nM | O=[N+]([O-])c1ccc(/C=C/c2ccc3c(Cl)cc(Cl)c(O)c3n2)o1 [Compound 7] | > 7.23 | > 18.80 | > 25000 nM |  |
| 220 to 222 °C | 2080 ± 400 nM | 1120 ± 510 nM | CC(=O)Oc1c(Cl)cc(Cl)c2ccc(/C=C/c3ccc([N+](=O)[O-])o3)nc12 [Compound 8] | 5.46 | 10.13 | 11400 ± 2530 nM |  |
| 161 to 163 °C | > 25000 nM | > 25000 nM | O=[N+]([O-])c1ccccc1/C=C/c1ccnc2ccccc12 [Compound 9] |  |  |  |  |
| 111 to 112 °C | > 25000 nM | > 25000 nM | O=[N+]([O-])c1cccc(/C=C/c2ccnc3ccccc23)c1 [Compound 10] |  |  |  |  |
| 228 to 229 °C | > 25000 nM | > 25000 nM | O=[N+]([O-])c1ccc(/C=C/c2ccnc3ccccc23)cc1 [Compound 11] |  |  |  |  |
